Biological target: human hematopoietic prostaglandin D2 synthase (Homo sapiens, UniProt O60760)
Test: Inhibitory activity against spleen-type (hematopoietic) prostaglandin D2 synthase, [14C]PGH2 to PGD2, TLC
Format: biochemical
Details: for inhibition at 10 µM / inhibition at 30 µM: read-out: Inhibitory Ratio of Prostaglandin D2 (PGD2) Synthase (%)
Experimental: A buffer solution of 100 mM Tris (hydroxymethyl)aminomethane/HCl buffer (pH8.0) containing glutathione (0.1 mM) and human hematopoietic prostaglandin D2 synthase (adequate quantity) was preincubated at 25° C. for 5 minutes in the presence or absence of a test compound, and then 14C labeled prostaglandin H2 ([14C]PGH2) (10 μM) was added, and the buffer solution was further incubated at 25° C. for one minute. A mixture of ether, methanol, and citric acid was added to the reaction mixture, and the ether layer was developed on silica gel thin-layer chromatography (TLC) (eluent=ether: methanol: acetic acid=90:2:1), and the PGD2 produced was measured by exposure to an imaging plate. The enzyme inhibitory rates of test compounds were calculated assuming the amount of production of PGD2 without the test compound being 100%.

human hematopoietic prostaglandin D2 synthase, sequence (O60760 whole entry): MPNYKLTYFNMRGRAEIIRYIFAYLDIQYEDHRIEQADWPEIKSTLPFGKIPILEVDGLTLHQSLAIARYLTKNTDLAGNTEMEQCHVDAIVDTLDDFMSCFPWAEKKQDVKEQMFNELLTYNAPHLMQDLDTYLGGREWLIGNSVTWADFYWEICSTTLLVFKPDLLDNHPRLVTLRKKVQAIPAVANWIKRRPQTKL

Structure (SMILES)	inhibition at 10 µM (Drug Concentration 10 μM)	inhibition at 30 µM (Drug Concentration 30 μM)	Inhibitory Ratio of Prostaglandin D2 (PGD2) Synthase (%) (Drug Concentration 10 μM)	Inhibitory Ratio of Prostaglandin D2 (PGD2) Synthase (%) (Drug Concentration 30 μM)
CCc1nn(-c2ccccc2)c(O)c1/C=N/n1c(C)nc2ccccc2c1=O [Compound 6, 3-[(3-ethyl-5-hydroxy-1-phenylpyrazol-4-yl)methylidene]-amino-2-methyl-3,4-dihydroquinazolin-4-one]	18%			
CCOC(=O)CCCc1nn(-c2ccccc2)c(O)c1C=Nn1c(C)nc2ccccc2c1=O [Compound 11, 3-({3-[3-(ethoxycarbonyl)propyl]-5-hydroxy-1-phenylpyrazol-4-yl}methylidene)amino-2-methyl-3,4-dihydroquinazolin-4-one]	45%			
Cc1nc2ccccc2c(=O)n1N=Cc1c(CCCC(=O)O)nn(-c2ccccc2)c1O [Compound 12, 3-{[3-(3-carboxypropyl)-5-hydroxy-1-phenylpyrazol-4-yl]methylidene}amino-2-methyl-3,4-dihydroquinazolin-4-one]	46%			
Cc1nn(C)c(O)c1/C=N/n1c(C)nc2ccccc2c1=O [Compound 14, 3-[(1,3-dimethyl-5-hydroxypyrazol-4-yl)methylidene]amino-2-methyl-3,4-dihydroquinazolin-4-one]	-2%	27%		
Cc1nn(-c2ccccc2Cl)c(O)c1C=Nn1c(C)nc2ccccc2c1=O [Compound 15, 3-{[1-(2-chlorophenyl)-3-methyl-5-hydroxypyrazol-4-yl]-methylidene}amino-2-methyl-3,4-dihydroquinazolin-4-one]	20%	53%		
Cc1nn(-c2cccc(Cl)c2)c(O)c1C=Nn1c(C)nc2ccccc2c1=O [Compound 16, 3-{[1-(3-chlorophenyl)-3-methyl-5-hydroxypyrazol-4-yl]-methylidene}amino-2-methyl-3,4-dihydroquinazolin-4-one]	50%	81%		
Cc1ccc(-n2nc(C)c(C=Nn3c(C)nc4ccccc4c3=O)c2O)cc1 [Compound 18, 3-{[3-methyl-1-(4-methylphenyl)-5-hydroxypyrazol-4-yl]-methylidene}amino-2-methyl-3,4-dihydroquinazolin-4-one]	23%	37%		
COc1ccc(-n2nc(C)c(C=Nn3c(C)nc4ccccc4c3=O)c2O)cc1 [Compound 19, 3-{[3-methyl-1-(4-methoxyphenyl)-5-hydroxypyrazol-4-yl]-methylidene}amino-2-methyl-3,4-dihydroquinazolin-4-one]	6%	50%		
CCc1nc2ccccc2c(=O)n1/N=C/c1c(C)nn(-c2ccccc2)c1O [Compound 21]	13%	51%		
Cc1nn(-c2ccccc2)c(O)c1/C=N/n1c(C(C)C)nc2ccccc2c1=O [Compound 22, 3-[(5-hydroxy-3-methyl-1-phenylpyrazol-4-yl)methylidene]-amino-2-isopropyl-3,4-dihydroquinazolin-4-one]	14%	44%		
Cc1nn(-c2ccccc2)c(O)c1/C=N/n1c(CO)nc2ccccc2c1=O [Compound 26, 3-[(5-hydroxy-3-methyl-1-phenylpyrazol-4-yl)methylidene]-amino-2-hydroxymethyl-3,4-dihydroquinazolin-4-one]	86%	71%		
O=c1c2ccccc2nc(CO)n1/N=C/c1c(C(F)(F)F)nn(-c2ccccc2)c1O [Compound 28]	19%	30%		
COCc1nc2ccccc2c(=O)n1N=Cc1c(C)nn(-c2ccccc2)c1O [Compound 29, 3-[(5-hydroxy-3-methyl-1-phenylpyrazol-4-yl)methylidene]-amino-2-methoxymethyl-3,4-dihydroquinazolin-4-one]			20%	40%
COc1cccc(-c2nc3ccccc3c(=O)n2N=Cc2c(C)nn(-c3ccccc3)c2O)c1 [Compound 31, 3-[(5-hydroxy-3-methyl-1-phenylpyrazol-4-yl)methylidene]-amino-2-(3-methoxyphenyl)-3,4-dihydroquinazolin-4-one]			23%	26%

From US20060229324A1, “Quinazolin-4-one derivatives” (priority 2002, published 2006)
